# Assay results reported in patent publication US20040023945A1, “CYCLIC AMP-SPECIFIC PHOSPHODIESTERASE INHIBITORS” (ICOS Corporation, priority 1999, published 2004).
# System: human peripheral blood lymphocytes
# Assay: Lipopolysaccharide-stimulated TNFα release from human peripheral blood lymphocytes
# Format: cell-based
# Details: Homo sapiens, Lymphocyte, LPS-stimulated TNFα release from human PBL; read-out: PBL/TNFα EC50
# Procedure: The compounds of structural formula (II) also were tested for an ability to reduce TNFα secretion in human peripheral blood lymphocytes. The ability to reduce TNFα secretion is related to the EC50 values (i.e., the effective concentration of the compound capable of inhibiting 50% of the total TNFα).
# To assess the ability of a compound to reduce TNFα secretion in human peripheral blood lymphocytes (PBL), the following tests were performed.
# Heparinized blood (approximately 30 mL) drawn from human volunteers was mixed 1:1 with Dulbecco's modified phosphate-buffered saline. This mixture was mixed 1:1 with HISTOPAQUE® and centrifuged at 1,500 rpm at room temperature without braking in the swinging bucket of a Beckman model TJ6 centrifuge. Erythrocytes were centrifuged to the bottom of the tubes, and serum remained at the surface of the tubes. A layer containing lymphocytes sedimented between the serum and HISTOPAQUE® layers, and was removed by aspiration to a fresh tube. The cells were quantified and adjusted to 3×10^6 cells/mL and a 100 μL aliquot is placed into the wells of a 96 well plate. Test compounds and RPMI media (Gibco/BRL Life Sciences) are added to each of the wells 15 minutes prior to addition of bacterial LPS ([…]). The mixture was allowed to incubate for 20 hours at 37° C. in a humidified chamber. The cells then were separated by centrifuging at 800 rpm for 5 minutes at room temperature. An aliquot of 180 μL of supernatant was transferred to a new plate for determination of TNFα concentration. TNFα protein in the cell supernatant fluids was measured using a commercially available enzyme-linked immunosorbent assay (ELISA) (CYTOSCREEN® Immunoassay Kit from Biosource International).
# The cell-based assay provided the following results for various pyrrolidine compounds of the present invention. The EC50 values (i.e., effective concentration of the compound capable of inhibiting 50% of the total TNFα) illustrate the ability of the present compounds to inhibit LPS-stimulated TNFα release from human PBL.
row,EC50 [nM],Structure (SMILES)
1,173,"COc1ccc([C@@H]2CN(C(=O)C(N)=O)C[C@@]2(C)[C@@H](C)O)cc1OCC#Cc1ccc(C(F)(F)F)cc1 [Example 76, 2-((3S,4S)-3-((R)-1-Hydroxyethyl)-4-{4-methoxy-3-(3-(4-trifluoromethyl-phenyl)prop-2-ynyloxy]-phenyl}-3-methylpyrrolidin-1-yl)-2-oxo-acetamide]"
2,44,"COc1ccc([C@@H]2CN(C(=O)[C@H](O)C3CCCCC3)C[C@@]2(C)[C@@H](C)O)cc1OC1CCCC1 [Example 91, (2R)-1-[3-((1R)-1-Hydroxyethyl)(3S,4S)-4-(3-cyclopentyloxy-4-methoxyphenyl)-3-methylpyrrolidinyl]-2-cyclohexyl-2-hydroxyethan-1-one]"
3,3660,"COC(=O)N1C[C@@H](c2ccc(OC)c(OC(C)CCc3ccccc3)c2)[C@](C)(C(C)O)C1 (relative stereo) [Example 6, trans-3-(1-Hydroxyethyl)-4-(4-methoxy-3-(1-methyl-3-phenylpropoxy)phenyl]-3-methylpyrrolidine-1-carboxylic acid methyl ester]"
4,557,"COc1ccc([C@@H]2CN(C(=O)C(N)=O)C[C@@]2(C)[C@@H](C)O)cc1OC1CCCC1 [Example 74, 2-[3-((1R)-1-Hydroxyethyl)(3S,4S)-4-(3-cyclopentyloxy-4-methoxyphenyl)-3-methylpyrrolidinyl]-2-oxoacetamide]"
5,2370,"COc1ccc([C@@H]2CN(C(=O)C(N)=O)C[C@@]2(C)[C@@H](C)O)cc1OC1Cc2ccccc2C1 [Example 79, 2-{(3S,4S)-3-((R)-1-Hydroxyethyl)-4-[3-(indan-2-yloxy)-4-methoxyphenyl]-3-methylpyrrolidin-1-yl}-2-oxo-acetamide]"
6,250,"COc1ccc([C@@H]2CN(c3ccccn3)C[C@@]2(C)[C@@H](C)O)cc1OC1CCCC1 [Example 34, (1R)-1-[(3S,4S)-4-(3-Cyclopentyloxy-4-methoxyphenyl)-3-methyl-1-(2-pyridyl)pyrrolidin-3-yl]ethan-1-ol]"
7,801,"COc1ccc([C@@H]2CN(c3cccnc3)C[C@@]2(C)[C@@H](C)O)cc1OC1Cc2ccccc2C1 [Example 32, (1R)-1-[(3S,4S)-4-(3-Indan-2-yloxy-4-methoxyphenyl)-3-methyl-1-(3-pyridyl)pyrrolidin-3-yl]ethan-1-ol]"
8,51,"COc1ccc([C@@H]2CN(C(=O)C(=O)NCc3ccccc3)C[C@@]2(C)[C@@H](C)O)cc1OC1CCCC1 [Example 83, 2-[3-((1R)-1-Hydroxyethyl)(3S,4S)-4-(3-cyclopentyloxy-4-methoxyphenyl)-3-methylpyrrolidinyl]-2-oxo-N-benzylacetamide]"
9,630,"COc1ccc([C@@H]2CN(C(=O)[C@@H](OC(C)=O)C3CCCCC3)C[C@@]2(C)[C@@H](C)O)cc1OC1CCCC1 [Example 88, 2-[3-((1R)1-Hydroxyethyl)(3S,4S)-4-(3-cyclopentyloxy-4-methoxyphenyl)-3-methylpyrrolidinyl](1S)-1-cyclohexyl-2-oxoethyl acetate]"
10,1550,"COC(=O)N1C[C@@H](c2ccc(OC)c(OC3CC4CCC3C4)c2)[C@](C)(C(C)O)C1 (stereo partly drawn) [Example 5, trans 4-[3-Exo-(Bicyclo[2.2.1]hept-2-yloxy)-4-methoxyphenyl]-3-(1-hydroxyethyl)-3-methylpyrrolidine-1-carboxylic acid methyl ester]"
11,7.8,"CCCC[C@H](N)C(=O)N1C[C@@H](c2ccc(OC)c(OC3CCCC3)c2)[C@](C)([C@@H](C)O)C1 [Example 93, 1-[3-((1R)-1-Hydroxyethyl)(3S,4S)-4-(3-cyclopentyloxy-4-methoxyphenyl)-3-methylpyrrolidinyl](2S)-2-aminohexan-1-one]"
12,272,"CNC(=O)C(=O)N1C[C@@H](c2ccc(OC)c(OC3CCCC3)c2)[C@](C)([C@@H](C)O)C1 [Example 80, 2-[3-((1R)-1-Hydroxyethyl)(3S,4S)-4-(3-cyclopentyloxy-4-methoxyphenyl)-3-methylpyrrolidinyl]-N-methyl-2-oxoacetamide]"
